Results as given in patent US8586572B2, “3-phenyl-azetidine derivatives useful as modulators of cortical catecholaminergic neurotransmission” (Integrative Research Laboratories Sweden AB, priority 2008, dated 2013).
Structures can show the parent of a compound that is named as a salt.

Assays:
[1] = test system: extracellular NA, DA and 5-HT in prefrontal cortex; assay: Microdialysis in awake and freely moving rats, prefrontal cortex; type: in vivo, rat; conditions: 50 μmol/kg s.c., awake freely moving rats; for DA PFC ± SEM, maximum effect compared to baseline values: dopamine in prefrontal cortex dialysate; for NA PFC ± SEM, maximum effect compared to baseline values: norepinephrine in prefrontal cortex dialysate; for 5-HT PFC ± SEM, maximum effect compared to baseline values: serotonin in prefrontal cortex dialysate
From the text: (§1) Male Sprague-Dawley rats weighing 220-320 g were used throughout the experiments. Before the experiment the animals were group housed, five animals in each cage, with free access to water and food. The animals were housed at least one week after arrival prior to surgery and use in the experiments. Each rat was used only once for microdialysis.
(§2) We use a modified version (Waters et al., 1994) of the I-shaped probe (Santiago and Westerink, 1990). The dialysis membrane we use is the AN69 poly-acrylonitrile/sodiummethalylsulfonate copolymer (HOSPAL; o.d./i.d. 310/220 μm: Gambro, Lund, Sweden). In the dorsal striatum we use probes with an exposed length of 3 mm of dialysis membrane and in the prefrontal cortex the corresponding length is 2.5 mm. The rats were operated under isoflurane inhalationanesthesia while mounted into a Kopf stereotaxic instrument. Co-ordinates were calculated relative to bregma; dorsal striatum AP +1, ML ±2.6, DV −6.3; Pf cortex, AP +3.2, 8° ML ±1.2, DV −4.0 according to (Paxinos & Watson, 1986). The dialysis probe was positioned in a burr hole under stereotaxic guidance and cemented with phosphatine dental cement.
(§3) The rats were housed individually in cages for 48 h before the dialysis experiments, allowing them to recover from surgery and minimizing the risk of drug interactions with the anaesthetic during the following experiments. During this period the rats had free access to food and water. On the day of experiment the rats were connected to a micro perfusion pump via a swiwel and were replaced in the cage where they could move freely within its confinements. The perfusion medium was a Ringer's solution containing in mmol/l: NaCl; 140, CaCl2; 1.2, KCl; 3.0, MgCl2; 1.0 and ascorbic acid; 0.04 according to (Moghaddam & Bunney, 1989). The pump was set to a perfusion speed of 2 μl/min and 40 μl samples were collected every 20 min. Each sample was analyzed at two HPLC systems. On an autoinjector (CMA 200) with a 10-port valve (Valco C10WE), holding two sample loops in series (4 μl and 20 μl), each brain dialysate sample is loaded in both loops simultaneously. At injection the 20 μl sample is introduced into a column switching system (reverse-phase combined with reverse-phase ion-pairing) for dopamine (DA), noradrenaline (NA), normetanephrine (NM), 3-methoxytyramine (3-MT) and serotonin (5-hydroxytryptamine, 5-HT) determination, while the 4 μl sample is introduced on a reverse-phase column for the chromatography of the acidic monoamine metabolites 3,4-di-hydroxyphenylacetic acid (DOPAC), homovanillic acid (HVA) and 5-hydroxyindoleacetic acid (5-HIAA). The currents generated by the two EC detectors are converted to digital data and evaluated using Chromeleon software (Dionex) on a PC. The method sample turn over time was 4.5 min and two parallel experiments are normally analyzed simultaneously on the system.
(§4) After the experiment the rats were uncoupled from the perfusion pump and decapitated. Their brains were rapidly taken out and fixed in Neo-fix solution (Kebolab, Sweden) for subsequent inspection of probe localisation. The Animal Ethics Committee in Göteborg, Sweden approved the procedures applied in these experiments.
(§5) The microdialysis was performed in awake and freely moving rats.
(§6) Dopamine=DA; Norepinephrine=NA; Serotonin=5-HT; Stri=Striatum; PFC=Prefrontal Cortex.

[2] = test system: extracellular NA, DA and 5-HT in striatum; assay: Microdialysis in awake and freely moving rats, dorsal striatum; type: in vivo, rat; conditions: 50 μmol/kg s.c., awake freely moving rats; for DA Stri ± SEM, maximum effect compared to baseline values: dopamine in striatum dialysate; for 5-HT Stri ± SEM, maximum effect compared to baseline values: serotonin in striatum dialysate
From the text: as §1, §2, §3, §4, §5, §6

Row | SMILES | melting point [°C] | DA PFC ± SEM, maximum effect compared to baseline values [1] | NA PFC ± SEM, maximum effect compared to baseline values [1] | 5-HT PFC ± SEM, maximum effect compared to baseline values [1] | DA Stri ± SEM, maximum effect compared to baseline values [2] | 5-HT Stri ± SEM, maximum effect compared to baseline values [2] | further results
1 | CCN1CC(O)(c2cc(F)cc(F)c2)C1 (as salt: fumaric acid salt) | 140 to 141 |  |  |  |  |  | 
2 | CCN1CC(O)(c2cc(F)cc(Cl)c2)C1 (as salt: fumaric acid salt) | 166 to 168 |  |  |  |  |  | 
3 | CCN1CC(O)(c2cccc(Cl)c2F)C1 (as salt: fumaric acid salt) | 172 to 173 |  |  |  |  |  | 
4 | CCN1CC(O)(c2cccc(F)c2F)C1 (as salt: fumaric acid salt) [Example 1, 3-(2,3-difluorophenyl)-1-ethylazetidin-3-ol] | 148 to 150 |  |  |  |  |  | 
5 | CCN1CC(O)(c2ccc(F)c(F)c2)C1 (as salt: fumaric acid salt) [Example 2, 3-(3,4-difluorophenyl)-1-ethylazetidin-3-ol] | 177 to 179 |  |  |  |  |  | 
6 | COC1(c2cccc(F)c2F)CNC1 (as salt: oxalic acid salt) [Example 8, 3-(2,3-difluorophenyl)-3-methoxyazetidine] | 141 to 142 |  |  |  |  |  | 
7 | CCN1CC(OC)(c2cccc(F)c2F)C1 (as salt: oxalic acid salt) [Example 9, 3-(2,3-difluorophenyl)-1-ethyl-3-methoxyazetidine] | 147 to 148 |  |  |  |  |  | 
8 | CCN1CC(O)(c2cccc(F)c2F)C1 [Example 1, 3-(2,3-difluorophenyl)-1-ethylazetidin-3-ol] |  | 211 ± 61% of control | 438 ± 91% of control | 130 ± 11% of control | 219 ± 113% of control | 113 ± 13% of control | NA Stri ± SEM, maximum effect compared to baseline values ([2]; norepinephrine in striatum dialysate): 261 ± 151% of control
9 | CCN1CC(O)(c2ccc(F)c(F)c2)C1 [Example 2, 3-(3,4-difluorophenyl)-1-ethylazetidin-3-ol] |  | 309 ± 62% of control | 397 ± 59% of control | 182 ± 33% of control | 112% of control | 162% of control | 
10 | CCN1CC(OC)(c2cccc(F)c2F)C1 [Example 9, 3-(2,3-difluorophenyl)-1-ethyl-3-methoxyazetidine] |  | 215 ± 54% of control | 298 ± 79% of control | 169 ± 65% of control | 122 ± 12% of control | 134 ± 22% of control | 
